From publication PMC3961306, “Comparison of the Cancer Gene Targeting and Biochemical Selectivities of All Targeted Kinase Inhibitors Approved for Clinical Use” (PLoS ONE, 2014)

How the values were obtained:
Experiment in all cases: Kinase profiling in a biochemical assay panel (mobility shift assays and ELISA), %-inhibition at 1 μM; selectivity entropy
[1] = target: panel of more than 300 wild-type and mutant kinases (313 kinase panel) (Homo sapiens, UniProt P35916); conditions: kinase FLT4; compound at 1 μM
[2] = target: panel of more than 300 wild-type and mutant kinases (313 kinase panel) (Homo sapiens, UniProt P22607, K650M); conditions: kinase FGFR3(K650M); compound at 1 μM
[3] = target: panel of more than 300 wild-type and mutant kinases (313 kinase panel) (Homo sapiens, UniProt Q16654); conditions: kinase PDHK4; 1 μM
[4] = target: panel of more than 300 wild-type and mutant kinases (313 kinase panel) (Homo sapiens, UniProt Q9NYY3); conditions: kinase PLK2; 1 μM
[5] = target: panel of more than 300 wild-type and mutant kinases (313 kinase panel) (Homo sapiens, UniProt Q7KZI7); conditions: kinase MARK2; compound at 1 μM
[6] = target: panel of more than 300 wild-type and mutant kinases (313 kinase panel) (Homo sapiens, UniProt Q16512); conditions: kinase PKN1; 1 μM
[7] = target: panel of more than 300 wild-type and mutant kinases (313 kinase panel) (Homo sapiens, UniProt P49759); conditions: kinase CLK1; 1 μM compound
[8] = target: panel of more than 300 wild-type and mutant kinases (313 kinase panel) (Homo sapiens, UniProt P48730); conditions: kinase CK1δ; 1 μM compound
[9] = target: panel of more than 300 wild-type and mutant kinases (313 kinase panel) (Homo sapiens, UniProt Q9UBS0); conditions: kinase p70S6Kβ; 1 μM
[10] = target: panel of more than 300 wild-type and mutant kinases (313 kinase panel) (Homo sapiens, UniProt P06241); conditions: kinase FYN; compound at 1 μM
[11] = target: T1, panel of more than 300 wild-type and mutant kinases (313 kinase panel) (Homo sapiens, UniProt Q9H093); conditions: kinase NuaK2; 1 μM
T1 sequence (Q9H093 1-628): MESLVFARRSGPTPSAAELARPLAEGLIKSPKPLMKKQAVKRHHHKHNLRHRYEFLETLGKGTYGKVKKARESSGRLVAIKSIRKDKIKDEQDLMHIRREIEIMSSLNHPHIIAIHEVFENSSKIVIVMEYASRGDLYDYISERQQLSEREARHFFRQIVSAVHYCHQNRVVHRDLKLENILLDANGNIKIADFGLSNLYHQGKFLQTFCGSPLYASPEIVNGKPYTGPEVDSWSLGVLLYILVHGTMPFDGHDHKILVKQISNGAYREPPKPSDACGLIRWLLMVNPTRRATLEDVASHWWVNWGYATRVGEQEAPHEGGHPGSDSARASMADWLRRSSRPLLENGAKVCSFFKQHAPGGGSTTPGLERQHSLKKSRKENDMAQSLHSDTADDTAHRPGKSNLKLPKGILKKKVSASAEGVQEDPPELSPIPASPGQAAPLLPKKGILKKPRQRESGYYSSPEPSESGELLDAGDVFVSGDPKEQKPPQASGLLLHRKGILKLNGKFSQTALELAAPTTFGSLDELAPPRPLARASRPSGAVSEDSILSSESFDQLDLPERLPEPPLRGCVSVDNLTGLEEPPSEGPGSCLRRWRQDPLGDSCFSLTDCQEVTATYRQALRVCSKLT

[12] = target: panel of more than 300 wild-type and mutant kinases (313 kinase panel) (Homo sapiens, UniProt Q9UKE5); conditions: kinase TNIK; 1 μM
[13] = target: panel of more than 300 wild-type and mutant kinases (313 kinase panel) (Homo sapiens, UniProt Q9UK32); conditions: kinase RSK4; 1 μM
[14] = target: panel of more than 300 wild-type and mutant kinases (313 kinase panel) (Homo sapiens, UniProt P22607, K650E); conditions: kinase FGFR3(K650E); compound at 1 μM
[15] = target: panel of more than 300 wild-type and mutant kinases (313 kinase panel) (Homo sapiens, UniProt Q9Y5S2); conditions: kinase MRCKβ; 1 μM

panel of more than 300 wild-type and mutant kinases (313 kinase panel) (Homo sapiens, UniProt P06241), sequence (P06241 whole entry, change not shown): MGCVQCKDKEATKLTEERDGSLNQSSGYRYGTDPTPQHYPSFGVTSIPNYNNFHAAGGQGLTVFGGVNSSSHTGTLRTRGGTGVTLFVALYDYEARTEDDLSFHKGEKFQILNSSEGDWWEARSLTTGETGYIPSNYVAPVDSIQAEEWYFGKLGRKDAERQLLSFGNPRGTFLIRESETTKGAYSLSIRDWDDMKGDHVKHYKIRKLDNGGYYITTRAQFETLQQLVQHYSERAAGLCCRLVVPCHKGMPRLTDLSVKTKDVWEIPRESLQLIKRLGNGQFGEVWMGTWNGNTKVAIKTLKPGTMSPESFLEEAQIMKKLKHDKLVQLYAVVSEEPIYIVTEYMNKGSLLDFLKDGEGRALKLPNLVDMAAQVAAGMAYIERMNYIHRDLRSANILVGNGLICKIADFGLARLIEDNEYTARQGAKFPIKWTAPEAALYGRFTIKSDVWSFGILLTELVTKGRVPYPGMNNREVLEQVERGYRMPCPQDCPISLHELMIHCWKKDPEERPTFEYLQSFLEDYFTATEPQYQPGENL
panel of more than 300 wild-type and mutant kinases (313 kinase panel) (Homo sapiens, UniProt P22607, K650E), sequence (P22607 23-806 K650E): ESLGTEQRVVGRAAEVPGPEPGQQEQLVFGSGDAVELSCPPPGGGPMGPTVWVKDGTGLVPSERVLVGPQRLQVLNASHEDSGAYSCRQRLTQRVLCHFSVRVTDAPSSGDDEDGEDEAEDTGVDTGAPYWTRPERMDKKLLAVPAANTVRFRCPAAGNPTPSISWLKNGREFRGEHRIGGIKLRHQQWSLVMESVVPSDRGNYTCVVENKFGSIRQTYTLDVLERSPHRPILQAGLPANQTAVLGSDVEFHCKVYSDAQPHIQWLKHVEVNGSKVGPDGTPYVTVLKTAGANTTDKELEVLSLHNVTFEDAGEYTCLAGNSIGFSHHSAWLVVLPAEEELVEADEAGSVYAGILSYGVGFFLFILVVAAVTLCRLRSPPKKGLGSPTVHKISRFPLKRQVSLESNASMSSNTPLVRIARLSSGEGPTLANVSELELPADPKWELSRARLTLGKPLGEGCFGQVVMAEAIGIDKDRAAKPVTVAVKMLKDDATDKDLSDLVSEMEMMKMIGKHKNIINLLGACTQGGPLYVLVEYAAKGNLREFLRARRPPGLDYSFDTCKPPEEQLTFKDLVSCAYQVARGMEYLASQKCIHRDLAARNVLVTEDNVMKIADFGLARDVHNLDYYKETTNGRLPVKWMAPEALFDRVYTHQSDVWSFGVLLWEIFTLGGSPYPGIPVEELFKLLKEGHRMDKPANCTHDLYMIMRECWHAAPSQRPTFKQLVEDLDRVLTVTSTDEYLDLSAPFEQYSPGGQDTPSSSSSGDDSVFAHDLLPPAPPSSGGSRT
panel of more than 300 wild-type and mutant kinases (313 kinase panel) (Homo sapiens, UniProt Q9UKE5), sequence (Q9UKE5 whole entry, change not shown): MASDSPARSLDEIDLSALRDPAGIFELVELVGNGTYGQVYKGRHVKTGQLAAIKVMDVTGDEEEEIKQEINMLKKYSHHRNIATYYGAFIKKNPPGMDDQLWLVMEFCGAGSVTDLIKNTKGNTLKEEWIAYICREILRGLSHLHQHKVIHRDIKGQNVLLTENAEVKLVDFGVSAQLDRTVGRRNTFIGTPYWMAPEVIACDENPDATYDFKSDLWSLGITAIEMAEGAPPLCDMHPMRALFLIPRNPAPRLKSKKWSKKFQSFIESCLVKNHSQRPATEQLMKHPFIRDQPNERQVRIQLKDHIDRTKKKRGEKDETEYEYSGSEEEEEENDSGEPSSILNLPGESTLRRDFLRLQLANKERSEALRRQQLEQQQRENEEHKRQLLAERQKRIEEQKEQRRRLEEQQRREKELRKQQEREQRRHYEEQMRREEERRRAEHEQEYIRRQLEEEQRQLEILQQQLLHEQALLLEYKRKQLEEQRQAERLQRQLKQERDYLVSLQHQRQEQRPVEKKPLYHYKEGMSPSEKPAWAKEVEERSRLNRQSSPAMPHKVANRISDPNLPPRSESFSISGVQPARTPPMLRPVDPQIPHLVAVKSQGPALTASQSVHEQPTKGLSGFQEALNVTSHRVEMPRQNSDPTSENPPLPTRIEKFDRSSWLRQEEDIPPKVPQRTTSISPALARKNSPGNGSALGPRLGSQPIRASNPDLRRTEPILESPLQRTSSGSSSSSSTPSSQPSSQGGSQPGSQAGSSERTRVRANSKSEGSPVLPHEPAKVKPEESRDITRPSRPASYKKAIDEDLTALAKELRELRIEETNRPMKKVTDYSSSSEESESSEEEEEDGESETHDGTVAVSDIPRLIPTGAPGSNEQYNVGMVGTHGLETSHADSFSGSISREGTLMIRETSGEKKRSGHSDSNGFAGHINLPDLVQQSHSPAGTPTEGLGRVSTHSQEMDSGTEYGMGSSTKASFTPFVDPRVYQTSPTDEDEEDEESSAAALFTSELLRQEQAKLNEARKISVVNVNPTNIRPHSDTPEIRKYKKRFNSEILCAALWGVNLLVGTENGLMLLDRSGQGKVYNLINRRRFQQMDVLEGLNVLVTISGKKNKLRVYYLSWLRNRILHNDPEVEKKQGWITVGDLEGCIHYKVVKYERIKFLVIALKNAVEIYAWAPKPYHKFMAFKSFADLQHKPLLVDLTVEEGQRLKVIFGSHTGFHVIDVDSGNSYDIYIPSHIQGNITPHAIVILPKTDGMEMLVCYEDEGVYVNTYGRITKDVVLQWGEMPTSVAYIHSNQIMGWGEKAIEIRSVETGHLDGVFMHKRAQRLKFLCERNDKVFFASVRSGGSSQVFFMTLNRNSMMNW
panel of more than 300 wild-type and mutant kinases (313 kinase panel) (Homo sapiens, UniProt Q9UK32), sequence (Q9UK32 whole entry, stated change not applied): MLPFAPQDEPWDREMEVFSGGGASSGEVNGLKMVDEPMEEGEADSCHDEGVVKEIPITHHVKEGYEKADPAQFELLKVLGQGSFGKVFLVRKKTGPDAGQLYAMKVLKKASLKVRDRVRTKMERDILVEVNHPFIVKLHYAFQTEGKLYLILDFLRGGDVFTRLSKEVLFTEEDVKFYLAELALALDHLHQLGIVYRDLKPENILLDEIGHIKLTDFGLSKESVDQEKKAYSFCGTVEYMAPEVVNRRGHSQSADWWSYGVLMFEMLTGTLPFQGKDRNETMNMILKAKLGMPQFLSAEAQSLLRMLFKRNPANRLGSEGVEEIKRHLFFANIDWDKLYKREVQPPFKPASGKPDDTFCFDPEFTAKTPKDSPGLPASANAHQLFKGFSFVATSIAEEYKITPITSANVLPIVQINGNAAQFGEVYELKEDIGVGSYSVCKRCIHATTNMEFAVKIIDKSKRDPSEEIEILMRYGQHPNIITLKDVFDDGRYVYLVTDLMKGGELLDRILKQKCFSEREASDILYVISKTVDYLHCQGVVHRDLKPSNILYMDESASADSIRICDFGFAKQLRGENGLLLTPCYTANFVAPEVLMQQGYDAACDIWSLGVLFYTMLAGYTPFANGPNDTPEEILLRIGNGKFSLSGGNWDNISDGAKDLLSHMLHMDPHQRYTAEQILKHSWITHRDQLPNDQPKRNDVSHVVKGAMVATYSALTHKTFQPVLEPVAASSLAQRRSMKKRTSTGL
panel of more than 300 wild-type and mutant kinases (313 kinase panel) (Homo sapiens, UniProt P49759), sequence (P49759 whole entry, stated change not applied): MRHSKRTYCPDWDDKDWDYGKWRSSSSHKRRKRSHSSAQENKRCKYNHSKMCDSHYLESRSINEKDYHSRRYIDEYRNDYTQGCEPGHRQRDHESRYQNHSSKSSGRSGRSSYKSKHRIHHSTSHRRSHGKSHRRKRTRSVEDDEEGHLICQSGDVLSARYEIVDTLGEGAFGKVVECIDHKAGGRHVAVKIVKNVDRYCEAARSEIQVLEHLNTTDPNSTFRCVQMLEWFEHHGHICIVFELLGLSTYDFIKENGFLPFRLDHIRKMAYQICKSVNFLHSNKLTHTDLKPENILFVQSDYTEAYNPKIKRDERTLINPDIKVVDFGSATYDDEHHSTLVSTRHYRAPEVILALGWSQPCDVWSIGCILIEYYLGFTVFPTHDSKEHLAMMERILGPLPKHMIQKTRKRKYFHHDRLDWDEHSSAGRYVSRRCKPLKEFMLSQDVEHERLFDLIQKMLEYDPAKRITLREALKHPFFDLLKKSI
panel of more than 300 wild-type and mutant kinases (313 kinase panel) (Homo sapiens, UniProt P22607, K650M), sequence (P22607 23-806 K650M): as the sequence (P22607 23-806 K650E) above, with E628M counted along it

Row | SMILES | %-inhibition of FLT4 [1] | %-inhibition of FGFR3(K650M) [2] | %-inhibition of PDHK4 [3] | %-inhibition of PLK2 [4] | %-inhibition of MARK2 [5] | %-inhibition of PKN1 [6] | %-inhibition, CLK1 [7] | %-inhibition, CK1δ [8] | %-inhibition of p70S6Kβ [9] | %-inhibition of FYN [10] | %-inhibition of NuaK2 [11] | %-inhibition of TNIK [12] | %-inhibition of RSK4 [13] | %-inhibition of FGFR3(K650E) [14] | %-inhibition of MRCKβ [15]
1 | CNC(=O)c1cc(Oc2ccc(NC(=O)Nc3ccc(Cl)c(C(F)(F)F)c3)c(F)c2)ccn1 [regorafenib] | 104% | 101% | -1.61% | -3.23% | 2.17% | 0.804% | 38% | -6% | 1.41% | 55% | -24% | 42% | -1.19% | 99% | -17%
2 | CC(=O)Nc1cccc(-n2c(=O)n(C3CC3)c(=O)c3c(Nc4ccc(I)cc4F)n(C)c(=O)c(C)c32)c1 [trametinib] | 1.51% | -0.169% | -1.65% | -1.65% | -6% | 3.71% | -0.618% | 0.365% | -1% | 9% | 9% | 3% | 0.208% | -1.07% | -2.56%
3 | CCCS(=O)(=O)Nc1ccc(F)c(C(=O)c2c[nH]c3ncc(-c4ccc(Cl)cc4)cc23)c1F [vemurafenib] | 24% | 8% | -1.4% | -1.85% | -0.167% | -0.378% | 5% | -3% | 0.235% | 81% | 4.36% | 33% | -3% | 6.55% | -5%
